Columns and labels:
[1] = target: T1, serpentine synthase (SS, CrSS) (Catharanthus roseus, UniProt A0A8F5R546); test: LC-MS of product serpentine, yeast cultures expressing CrSS and yeast microsomes; format: biochemical; details: 30 uM substrate; microsomes: 150 uM NADPH, HEPES-NaOH pH 7.5, 30 C, 60 min; AaCPR co-expressed
T1 construct: predicted TM helix aa 7-24 FWSLPAIALLQVFLFFLF; 6HIS version (in planta) about 59 kDa
T1 sequence (A0A8F5R546 1-511): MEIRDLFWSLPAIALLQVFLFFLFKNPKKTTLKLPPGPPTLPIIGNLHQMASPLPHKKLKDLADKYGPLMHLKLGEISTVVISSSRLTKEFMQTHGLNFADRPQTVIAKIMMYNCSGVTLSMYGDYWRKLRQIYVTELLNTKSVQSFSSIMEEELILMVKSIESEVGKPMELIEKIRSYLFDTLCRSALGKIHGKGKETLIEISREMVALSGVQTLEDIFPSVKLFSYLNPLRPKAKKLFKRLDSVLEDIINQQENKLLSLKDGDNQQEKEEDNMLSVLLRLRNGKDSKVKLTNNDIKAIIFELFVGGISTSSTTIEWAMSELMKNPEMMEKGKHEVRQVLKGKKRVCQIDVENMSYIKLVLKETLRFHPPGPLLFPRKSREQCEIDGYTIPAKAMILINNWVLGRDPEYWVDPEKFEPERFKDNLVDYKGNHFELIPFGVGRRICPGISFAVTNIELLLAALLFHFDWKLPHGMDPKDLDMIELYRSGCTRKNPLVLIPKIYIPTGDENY

[2] = target: T1, serpentine synthase (SS, CrSS); test: LC-MS of product alstonine, yeast cultures expressing CrSS and yeast microsomes; format: biochemical; details: 30 uM substrate; microsomes: 150 uM NADPH, HEPES-NaOH pH 7.5, 30 C, 60 min; AaCPR co-expressed

Compound: COC(=O)C1=CO[C@@H](C)[C@H]2CN3CCc4c([nH]c5ccccc45)[C@@H]3C[C@H]12 [ajmalicine]
- LC-MS of product serpentine, yeast cultures expressing CrSS and yeast microsomes [1]: CrSS produced serpentine from ajmalicine when incubated in the media of yeast cultures expressing CrSS

Compound: COC(=O)C1=CO[C@@H](C)[C@@H]2CN3CCc4c([nH]c5ccccc45)[C@@H]3C[C@H]12 [THA]
- LC-MS of product alstonine, yeast cultures expressing CrSS and yeast microsomes [2]: this cytochrome P450 could also produce alstonine from THA
